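1) Cells in 96-well plates. 2) Compound, 48 h, 5 concentrations. 3) Linear interpolation between surrounding doses. 4) Unreached endpoint = highest concentration. At the GI50, growth is halved.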 Active and inactive are the calls of the source. Rule as the data show it: active = GI50 up to about 1.1 µM and inactive = higher.
What was measured:
Assay in all cases: NCI tumour cell line growth inhibition, 48 h
OVCAR-8 = test system: OVCAR-8
HL-60 = test system: HL-60
MCF7 = test system: MCF7
SK-MEL-2 = test system: SK-MEL-2
RPMI-8226 = test system: RPMI-8226
NCI-H226 = test system: NCI-H226
SF-539 = test system: SF-539
T47D = test system: T47D
BT-549 = test system: BT-549
HCC 2998 = test system: HCC 2998
ACHN = test system: ACHN
COLO 205 = test system: COLO 205
LOX IMVI = test system: LOX IMVI
MDA-MB-435 = test system: MDA-MB-435
NCI-H23 = test system: NCI-H23
NCI-H522 = test system: NCI-H522
UO-31 = test system: UO-31
SW-620 = test system: SW-620
NCI/ADR-RES = test system: NCI/ADR-RES
HOP-62 = test system: HOP-62

Measured: GI50

CCCCc1ccc(Nc2nc(S)c3[nH]cnc3n2)cc1
inactive: OVCAR-8 > 10 µM | HL-60 27.9 µM | MCF7 > 10 µM | SK-MEL-2 17 µM | RPMI-8226 44.5 µM | NCI-H226 16.3 µM | SF-539 20.3 µM | T47D 15.6 µM | BT-549 17.4 µM | HCC 2998 25.5 µM | ACHN 23.1 µM | COLO 205 16.6 µM | LOX IMVI 17.5 µM | MDA-MB-435 17.1 µM | NCI-H23 18.7 µM | NCI-H522 10.9 µM | UO-31 28.1 µM | SW-620 15.4 µM | NCI/ADR-RES 13.4 µM

CC[C@H](C)c1occ2c(O)c(C(=O)O)c(=O)cc-2c1C
inactive: HOP-62 24.9 µM | OVCAR-8 19.2 µM | HL-60 12.7 µM | MCF7 29.2 µM | SK-MEL-2 17.3 µM | RPMI-8226 30.7 µM | NCI-H226 33.8 µM | SF-539 20.7 µM | T47D 20.7 µM | BT-549 25.9 µM | HCC 2998 21.1 µM | ACHN 26.7 µM | COLO 205 19.3 µM | LOX IMVI 15.6 µM | MDA-MB-435 22.1 µM | NCI-H23 21.4 µM | NCI-H522 14.7 µM | SW-620 20.4 µM | NCI/ADR-RES 20.3 µM

CCOC(=O)c1nc2cc(C(F)(F)F)ccc2nc1Oc1ccc(C(=O)OC)cc1
inactive: OVCAR-8 > 100 µM | HL-60 35.1 µM | MCF7 > 100 µM | SK-MEL-2 > 100 µM | RPMI-8226 > 100 µM | NCI-H226 > 100 µM | SF-539 > 100 µM | T47D > 100 µM | BT-549 > 100 µM | HCC 2998 > 100 µM | ACHN > 100 µM | COLO 205 > 100 µM | LOX IMVI 83.8 µM | MDA-MB-435 > 100 µM | NCI-H522 69.2 µM | UO-31 > 100 µM | SW-620 > 100 µM | NCI/ADR-RES > 100 µM

Cc1c(O)c(OC2OC(CO)C(O)C(O)C2O)cc2c1CC[C@@H]1C2(C)C(=O)C[C@]2(C)[C@@H]([C@@](C)(O)C(O)CCC(C)(C)O)[C@H](O)C[C@@]12C (stereo not given in full)
inactive: HOP-62 > 100 µM | OVCAR-8 > 100 µM | HL-60 > 100 µM | MCF7 > 100 µM | SK-MEL-2 > 100 µM | NCI-H226 > 100 µM | SF-539 > 100 µM | T47D > 100 µM | BT-549 > 100 µM | HCC 2998 > 100 µM | ACHN > 100 µM | COLO 205 > 100 µM | LOX IMVI > 100 µM | MDA-MB-435 > 100 µM | NCI-H23 > 100 µM | NCI-H522 > 100 µM | UO-31 > 100 µM | SW-620 > 100 µM | NCI/ADR-RES > 100 µM
